Results: PMC5727842, “Antioxidant and Antidiabetic Effects of Flavonoids: A Structure-Activity Relationship Based Study” (BioMed Research International, 2017)

Tests used:
[1] = ABTS+ radical scavenging assay; conditions: 734 nm, mean ± SEM (n = 3)
Description: An improved ABTS^+ radical decolorization assay was carried out involving direct production of the blue/green ABTS^+ chromophore through the reaction between ABTS and potassium persulfate. Addition of antioxidant to the preformed radical cation reduces it to ABTS to an extent on a time scale depending on the antioxidant activity, the concentration of the antioxidant, and the duration of the reaction. 1 ml ABTS was dissolved in water to make 7 mM concentration of the resultant solution. […] The resultant reaction mixture was allowed to stand in the dark at room temperature for 12–16 h before being used. The ABTS^+ radical solution was diluted with MeOH to an absorbance of 0.7 (±0.02) at 734 nm. Then, 100 μl of sample at various concentrations (1000–0.4889 μg/mL) was mixed with 100 μL of diluted ABTS^+ radical. Each concentration was analyzed in triplicate and the percentage decrease of absorbance at 734 nm with a microplate reader (Tecan NanoQuant Infinite M200, Switzerland) was calculated for each point and the antioxidant capacity of the tested compounds was expressed as percent inhibition (%). The radical scavenging activity of the compounds was measured according to the following equation [29]:(2) % inhibition=Acontrol−Asample/Acontrol×100. IC50 values were calculated by linear regression of plots, and the average percent of scavenging capacity was taken from three replicates. Trolox was used as a standard in comparison for the determination of the antioxidant activity of the flavonoids.

[2] = target: T1, xanthine oxidase from buttermilk (Bos taurus, UniProt P80457); test: Xanthine oxidase inhibitory assay (XOI); type: biochemical; conditions: for xanthine oxidase inhibitory effect (in words): discussion
T1 construct: 0.3 U/mL enzymes (xanthine oxidase from buttermilk); purchased Sigma-Aldrich (Singapore); host or cells: buttermilk (natural source)
T1 sequence (P80457 whole entry): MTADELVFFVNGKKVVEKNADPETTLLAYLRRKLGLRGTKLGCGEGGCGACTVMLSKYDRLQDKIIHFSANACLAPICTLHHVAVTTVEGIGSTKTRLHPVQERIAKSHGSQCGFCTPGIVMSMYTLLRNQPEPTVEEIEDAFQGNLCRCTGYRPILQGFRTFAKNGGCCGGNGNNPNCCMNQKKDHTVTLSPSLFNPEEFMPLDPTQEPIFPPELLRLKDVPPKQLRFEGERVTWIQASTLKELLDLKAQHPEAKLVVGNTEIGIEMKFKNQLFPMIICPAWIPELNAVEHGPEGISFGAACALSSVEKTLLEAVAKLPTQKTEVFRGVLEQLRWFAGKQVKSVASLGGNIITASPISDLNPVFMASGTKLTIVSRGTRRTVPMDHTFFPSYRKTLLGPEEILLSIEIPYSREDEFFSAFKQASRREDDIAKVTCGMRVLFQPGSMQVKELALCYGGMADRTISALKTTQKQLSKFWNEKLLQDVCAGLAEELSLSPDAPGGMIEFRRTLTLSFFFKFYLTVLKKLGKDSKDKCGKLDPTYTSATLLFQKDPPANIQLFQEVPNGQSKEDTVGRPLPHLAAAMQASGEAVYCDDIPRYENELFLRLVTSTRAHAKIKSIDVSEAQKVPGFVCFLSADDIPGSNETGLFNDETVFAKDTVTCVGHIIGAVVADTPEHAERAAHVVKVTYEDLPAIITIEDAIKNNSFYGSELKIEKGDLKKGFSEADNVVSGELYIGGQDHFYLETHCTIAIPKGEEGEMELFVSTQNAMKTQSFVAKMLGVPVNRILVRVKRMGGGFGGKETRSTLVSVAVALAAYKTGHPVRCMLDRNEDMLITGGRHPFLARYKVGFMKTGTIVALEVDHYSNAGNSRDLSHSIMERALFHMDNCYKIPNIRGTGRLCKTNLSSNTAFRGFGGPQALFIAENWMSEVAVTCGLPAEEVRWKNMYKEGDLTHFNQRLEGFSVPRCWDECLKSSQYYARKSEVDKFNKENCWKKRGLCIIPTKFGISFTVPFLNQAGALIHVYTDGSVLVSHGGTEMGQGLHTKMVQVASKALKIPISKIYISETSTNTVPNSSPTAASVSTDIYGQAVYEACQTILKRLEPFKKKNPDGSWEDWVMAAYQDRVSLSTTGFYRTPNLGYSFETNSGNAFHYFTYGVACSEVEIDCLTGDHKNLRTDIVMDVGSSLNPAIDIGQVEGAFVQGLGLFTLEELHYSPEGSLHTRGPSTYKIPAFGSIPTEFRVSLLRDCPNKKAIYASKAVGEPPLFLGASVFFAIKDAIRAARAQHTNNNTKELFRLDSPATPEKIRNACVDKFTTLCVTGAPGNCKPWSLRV
Description: XO catalyzes the oxidation of hypoxanthine to xanthine and subsequently to uric acid. The inhibition of XO reduces both vascular oxidative stress and circulating levels of uric acid. This assay is based on the fact that the superoxide anions are generated by the xanthine. The xanthine oxidase inhibitory activity was measured spectrophotometrically (Tecan NanoQuant Infinite M200, Switzerland) at 295 nm under aerobic condition with slight modification. The reaction mixture contained 50 mM phosphate buffer (pH 7.5), 0.15 mM xanthine (substrate), and 0.3 U/mL enzymes (xanthine oxidase from buttermilk). Samples were prepared by dissolving 1 mg in 5% DMSO in MeOH which gives sample concentration of 144.0 μg/mL in assay. […] The absorption increment at 295 nm indicates the formation of […] of uric acid/min at 25°C. […] All determination was done in triplicate and half maximal concentration (IC50) values were calculated from the percentage of inhibition. XO inhibition activity was expressed as the percentage inhibition of XO as follows:(3) % of inhibition=AbsA−B−C−D/AbsA−B×100, where A is the negative control with B as the blank of A which is without the enzyme and the sample while C is the activity of the sample with enzyme with D as the blank of the sample without enzyme.

[3] = Rapid screening of radical scavenging activity by dot blot assay (DPPH staining); conditions: silica sheet stained with DPPH in MeOH, dilutions from 1000 μg/mL
Description: An aliquot (20 μL) of each dilution of each group was carefully loaded on a […] TLC plate and allowed to dry for 10 min. Drops of each sample were loaded in the order of decreased concentration along the 16 columns. The staining of the silica plate was based on the procedure of Soler-Rivas et al.. […] The intensity of the yellow color depends upon the amount and nature of radical scavenger present in the flavonoids.

[4] = DPPH radical scavenging assay; conditions: 30 min, 517 nm, mean ± SEM (n = 3)
Description: Each sample's stock solution was diluted to final concentrations of 1000–0.4889 μg/mL in MeOH. A total of 1 mL of a 0.3 mM DPPH methanolic solution was added to 2.5 mL of sample solution of different concentrations and allowed to react at room temperature. After 30 min, the absorbance (Abs) values were measured at 517 nm with a microplate reader (Tecan NanoQuant Infinite M200, Switzerland) and converted into the percentage antioxidant activity using the following equation described previously: (1) % antioxidant activity=100−Abssample−Abssample blank/Abscontrol−Abscontrol blank×100. MeOH + compound solution was used as a blank, while DPPH solution plus MeOH was used as a negative control. The positive controls were DPPH solution plus 1 mM ascorbic acid. The IC50 values were calculated by linear regression of plots. The average percent of scavenging capacity was taken from three replicates.

[5] = Ferric reducing antioxidant power (FRAP); conditions: for FRAP (AAE μg): ascorbic acid equivalent, mean ± SEM (n = 3), Table 2
Description: This assay was based on the reduction of the ferric tripyridyltriazine (Fe III-TPTZ) complex to the ferrous ion (Fe II) at a low pH forming an intense blue color. In the FRAP assay, compounds that are rich in antioxidant effect exert their action by breaking the free radical chain by donating a hydrogen atom. Briefly, ferric reducing antioxidant power (FRAP) reagent (2.5 mL of a 10 mM TPTZ solution in 40 mM HCl, 2.5 mL of 20 mM FeCl3, and 25 mL of 0.1 M acetate buffer pH 3.6) was prepared and incubated for 10 min at 37°C. Then 20 μL of each compound and ascorbic acid (standard) and 40 μL of FRAP reagent were added to 140 μL of distilled water in a 96-well plate producing a blue-colored solution. The solutions were kept at room temperature for 20 min in the dark and then measured at 593 nm with a microplate reader (Tecan, Switzerland) using a reagent blank composed of 40 μL of FRAP reagents in 200 μL of distilled water. A calibration curve was prepared with a serial dilution of ascorbic acid (standard). The total antioxidant capacity was calculated by interpolating the measured absorbance of the calibration curve and expressed as ascorbic acid equivalents. The results were corrected for dilution and expressed as AAE μg of ascorbic acid/g.

DPP-4 = target: T2, DPP-4 (Homo sapiens, UniProt P27487); test: Dipeptidyl peptidase IV (DPP-4) inhibitory assay; type: biochemical; conditions: Table 3; mean ± SEM (n = 3); NA: not active
T2 construct: purchased Cayman (Michigan, USA)
T2 sequence (P27487 whole entry): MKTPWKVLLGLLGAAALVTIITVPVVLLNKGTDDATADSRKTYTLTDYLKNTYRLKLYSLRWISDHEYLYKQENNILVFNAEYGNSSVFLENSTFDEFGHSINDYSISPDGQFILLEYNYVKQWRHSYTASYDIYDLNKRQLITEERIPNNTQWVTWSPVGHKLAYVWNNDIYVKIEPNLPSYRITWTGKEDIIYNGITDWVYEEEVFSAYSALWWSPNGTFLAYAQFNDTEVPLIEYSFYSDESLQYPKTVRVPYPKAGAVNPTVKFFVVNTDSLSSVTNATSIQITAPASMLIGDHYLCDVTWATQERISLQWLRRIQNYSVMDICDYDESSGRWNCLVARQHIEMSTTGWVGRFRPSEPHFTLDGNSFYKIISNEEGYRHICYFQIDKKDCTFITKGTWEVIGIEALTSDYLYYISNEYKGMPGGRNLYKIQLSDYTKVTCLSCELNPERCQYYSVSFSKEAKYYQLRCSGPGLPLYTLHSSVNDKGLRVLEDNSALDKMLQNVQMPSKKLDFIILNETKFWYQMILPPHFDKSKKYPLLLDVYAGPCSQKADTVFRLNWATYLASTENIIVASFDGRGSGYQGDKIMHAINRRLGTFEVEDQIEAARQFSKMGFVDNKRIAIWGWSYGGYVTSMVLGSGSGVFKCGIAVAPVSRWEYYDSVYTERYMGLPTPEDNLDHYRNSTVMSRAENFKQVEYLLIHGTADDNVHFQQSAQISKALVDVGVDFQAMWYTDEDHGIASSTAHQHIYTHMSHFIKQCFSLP
Description: Dipeptidyl peptidase (IV) inhibitors work by inhibiting the action of this enzyme, thereby prolonging the activity of incretins that play an important role in insulin secretion and blood glucose control regulation. DPP-4 inhibitory assay was performed as per the standard method (Cayman, USA). Firstly, 1 mg of sample was dissolved in 10% of DMSO and MeOH as the stock solution. For initial activity (100%), 10 μL of MeOH, 30 μL of diluted assay buffer, and 10 μL of diluted DPP-4 (Cayman, USA) were added to 96-well microplate. […] For background well, 10 μL of MeOH and 40 μL of diluted assay buffer were added. Then, 10 μL of prepared sample and 30 μL of diluted assay buffer were added with 10 μL of diluted DPP-4. After that, 50 μL of substrate solution was added to all wells to initiate the reaction and further incubated in the dark at 37°C for 30 min. Finally, plate was read at 360 nm of excitation wavelength and 465 nm of emission wavelength using fluorescence microplate reader (Perkin Elmer, Germany). All determinations were done in triplicate and half maximal concentration (IC50) values were calculated from the percentage of inhibition based on the linear regression analysis. The equation given below was applied to calculate the inhibitory activity (%):(5) Inhibitory activity%=Initial Activity−Sample/Initial Activity×100%.
For DPP-4 inhibitory assay, the reaction is based on the cleavage of the peptide bond by DPP releasing the free Gly-Pro-aminomethylcoumarin group, a fluorogenic substrate resulting in fluorescence excitation and emission.

[6] = target: α-glucosidase from Saccharomyces cerevisiae; test: α-Glucosidase inhibitory assay; type: biochemical; conditions: Table 3; mean ± SEM (n = 3); NA: not active
Description: α-Glucosidase inhibitory activity of the flavonoids was carried out according to the standard method with minor modification. […] A solution of 30 mM phosphate buffer (pH 6.5) was used to prepare stock solution of the sample to form a final concentration of 160 μg/mL. Then, 10 μL/well of sample was mixed with 15 μL/well of α-glucosidase from Saccharomyces cerevisiae (Megazyme, Ireland). 50 mM buffer (pH 6.5) was used to prepare the enzyme solution. Then, 115 μL/well of 30 mM buffer (pH 6.5) was added and incubated for 5 min at room temperature. Then, 75 μL/well of PNP-glucoside was added to initiate reaction and incubated at room temperature for 15 min. Finally, about 50 μL glycine at pH 10 was added to stop the reaction. The final volume of 250 μL of compound, positive control, enzyme, 30 mM buffer, and substrate was located in 96-well microplate. The absorbance (Abs) was measured using microplate reader (Tecan NanoQuant Infinite M200, Switzerland) at 405 nm to represent the amount of p-nitrophenol released from PNP-glucoside. […] The equation given below was used to calculate the inhibitory activity (%):(4) Inhibitory activity%=Abs control−Abs sample/Abs control×100%.
Tested on yeast α-glycosidase, the reaction is initiated by reacting the inhibitor (sample) with the α-glycosidase enzyme that competes with […] for the binding site, thus releasing ρ-nitrophenol which was measured in the assay.

| SMILES | IC50 ABTS+ [1] | xanthine oxidase inhibitory effect (in words) [2] | IC50 DPPH [4] | IC50 (DPP-4) [µM] | IC50 ([2]; xanthine oxidase inhibition, 295 nm, mean ± SEM (n = 3), NA: not active) [µM] | radical scavenging activity by dot blot (intensity of yellow spots) [3] | FRAP antioxidant capacity [5] | FRAP (AAE μg) [5] | IC50 α-Glucosidase [6] |
| --- | --- | --- | --- | --- | --- | --- | --- | --- | --- |
| Oc1cc(O)c2c(c1)O[C@H](c1ccc(O)c(O)c1)[C@@H](O)C2 [(+)-Catechin] | 0.62 ± 0.05^G µg/ml | inactive | 14.34 ± 1.55^EF µg/ml |  |  | strong radical scavenging activity | 152.07 ± 1.95 AAE μg of ascorbic acid/g | 148.12 ± 4.40^C AAE μg |  |
| CC(=O)Oc1cc(OC(C)=O)c2c(=O)cc(-c3ccccc3)oc2c1OC(C)=O [Acetate (norwogonin), 5,7,8-Triacetoxyflavone] | 78.99 ± 66.5^C µg/ml |  | >100^B µg/ml | > 252 |  | did not show any spot | 39.63 ± 1.01 AAE μg of ascorbic acid/g | 39.63 ± 1.01^E AAE μg |  |
| COc1c(OC(C)=O)cc(OC(C)=O)c2c(=O)cc(-c3ccccc3)oc12 [Acetate (wogonin), 5,7-Diacetoxy-8-methoxyflavone] | >200^A µg/ml |  | >200^A µg/ml |  |  | did not show any spot | 5.06 ± 3.24 AAE μg of ascorbic acid/g | 5.06 ± 3.24^G AAE μg | >100^A µg/mg |
| O=c1c(O)c(-c2ccc(O)cc2)oc2cc(O)cc(O)c12 [Kaempferol, 4′,3,5,7-Tetrahydroxyflavone] | 1.36 ± 0.22^FG µg/ml | significant xanthine oxidase inhibitory effect | 10.89 ± 0.86^EF µg/ml | 160 |  | strong radical scavenging activity | 265.65 ± 5.46 AAE μg of ascorbic acid/g | 265.65 ± 5.46^A AAE μg |  |
| COc1cc(OC)c2c(=O)cc(-c3ccccc3)oc2c1OC [Methyl ether (wogonin), 5,7,8-Trimethoxyflavone] | >200^A µg/ml |  | >200^A µg/ml | > 320 |  | did not show any spot | 1.68 ± 0.18 AAE μg of ascorbic acid/g | 1.68 ± 0.18^G AAE μg |  |
| O=c1c(O)c(-c2ccc(O)c(O)c2)oc2cc(O)cc(O)c12 [Quercetin, 3,3′,4′,5,7-Pentahydroxyflavone] | 0.83 ± 0.01^FG µg/ml | significant xanthine oxidase inhibitory effect | 7.76 ± 0.99^FG µg/ml | 72 |  | strong radical scavenging activity | 148.12 ± 4.40 AAE μg of ascorbic acid/g | 138.93 ± 6.22^C AAE μg |  |
| Cc1c(C)c2c(c(C)c1O)CCC(C)(C(=O)O)O2 (stereo not shown) [Trolox, trolox, reference compound] | 1.76 ± 0.15^^FG µg/ml |  |  |  |  |  |  |  |  |

The next lines start with results.

| IC50 ABTS+ [1] | xanthine oxidase inhibitory effect (in words) [2] | IC50 DPPH [4] | IC50 (DPP-4) [µM] | IC50 ([2]; xanthine oxidase inhibition, 295 nm, mean ± SEM (n = 3), NA: not active) [µM] | SMILES | radical scavenging activity by dot blot (intensity of yellow spots) [3] | FRAP antioxidant capacity [5] | FRAP (AAE μg) [5] | IC50 α-Glucosidase [6] |
| --- | --- | --- | --- | --- | --- | --- | --- | --- | --- |
| 0.70 ± 0.08^G µg/ml | inactive | 9.92 ± 0.33^F µg/ml |  |  | Oc1cc(O)c2c(c1)O[C@H](c1ccc(O)c(O)c1)[C@H](O)C2 [(−)-Epicatechin] | strong radical scavenging activity | 152.14 ± 7.30 AAE μg of ascorbic acid/g | 152.07 ± 1.95^C AAE μg |  |
|  |  | 4.75 ± 0.91^GHa µg/ml |  |  | O=C1O[C@H]([C@@H](O)CO)C(O)=C1O [Ascorbic acid, ascorbic acid, reference compound] |  | 114.58 AAE μg of ascorbic acid/g | 114.58 ± 0.27^Da AAE μg |  |
| 1.73 ± 0.06^FG µg/ml | low xanthine oxidase inhibitory activity | 5.23 ± 0.53^GHa µg/ml | 77.7 | > 349 | O=c1cc(-c2ccc(O)cc2)oc2c(O)c(O)cc(O)c12 [Isoscutellarein, 4′,5,7,8-Tetrahydroxyflavone] | strong radical scavenging activity |  | 262.91 ± 4.99^A AAE μg |  |
